The values that follow come from US20250270222A1, “AP2 ASSOCIATED KINASE 1 INHIBITORS AND USES THEREOF” (Satellos Bioscience Inc., priority 2023, published 2025).

The target of the assay is AAK1 (amino acids T27-A365) (Homo sapiens (Human), UniProt Q2M2I8). As to the kind of experiment: AAK1 pSENs assay. Type of assay: biochemical. To be noted: ratio of AAK1 pSENs activity to GAK pSENs activity. As for the experimental part: The recombinant proteins were independently expressed in Esherichia coli BL21(DE3) cells cultured in Luria-Bertani (LB) medium until OD600 reached 0.6-0.8, then cooled to 15° C., and supplemented with 0.5 mM isopropyl 1-thio-D-galactopyranoside (IPTG) induce protein expression 16 h. Cells were harvested and resuspended in lysis buffer (50 mM HEPES pH 7.5, 500 mM NaCl, 5 mM imidazole, 5% glycerol, 0.5 mM Tris (2-carboxyethyl) phosphine (TCEP), cOmplete Protease Inhibitor Tablet (Roche)) and lysed by microfluidics high pressure homogenizer (UH-06, Union-Biotech). Proteins were purified using Ni-Affinity chromatography (His FF column, Bestchrom) and eluted stepwise in binding buffer with 20-300 mM imidazole. Removal of the hexahistidine tag was performed at 4° C. overnight using recombinant TEV protease and reacted with BirA to obtain the corresponding biotinylated-AAK1. BIKE or GAK proteins. Further separated in the reverse Strep column (Strep-Tactin® XT, IBA). The Biotin elution sample was collected containing untagged biotinylated protein was then purified by Ion-exchange chromatography (Mono Q 10/100 GL, Cytiva) and Size-exclusion chromatography (HiLoad 16/600 Superdex 200 pg, Cytiva). The pure protein was stored in a storage buffer 50 mM HEPES (pH 7.5), 300 mM NaCl, 5% glycerol at −80° C. Protein were characterized by SDS-PAGE. LC-MS and aSEC.
Sequence of AAK1 (amino acids T27-A365) (Q2M2I8 27-365): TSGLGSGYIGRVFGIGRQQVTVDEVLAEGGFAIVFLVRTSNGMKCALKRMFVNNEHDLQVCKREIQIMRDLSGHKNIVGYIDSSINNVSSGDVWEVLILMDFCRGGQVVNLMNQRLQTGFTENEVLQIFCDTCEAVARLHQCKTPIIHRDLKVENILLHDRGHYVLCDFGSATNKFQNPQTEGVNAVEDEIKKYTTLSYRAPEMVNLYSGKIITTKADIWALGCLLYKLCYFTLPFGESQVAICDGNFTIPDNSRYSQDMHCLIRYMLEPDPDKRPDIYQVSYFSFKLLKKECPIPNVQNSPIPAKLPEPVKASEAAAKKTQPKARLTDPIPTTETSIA
This example describes one illustrative method for determining the IC50 of the compounds of the present invention against AAK1 (amino acids T27-A365). AAK1 protein was dissolved at 20 nM in 1× enzyme solution (50 mM HEPES pH7.5, 10 mM MgCl2, 1 mM DTT, 1% glycerol, 0.5 mM EGTA, 0.01% Briji35, 0.02% BSA) and 12.5 ul was incubated with 250 nl DMSO or 250 nl compound in DMSO at 25° C. for 15 min. The reaction was started by addition of 12.5 ul of 30 uM AQT0759 (Assayquant, CSKS-AQT0759B) and 70 uM ATP which were diluted in 1× substrate dilution buffer (50 mM HEPES pH7.5, 10 mM MgCl2, 1 mM DTT, 1% glycerol, 0.5 mM EGTA, 0.01% Briji35).
Consider `COc1ncccc1-c1cnn2ccc(N3CCN(C(=O)OC4CCNC4)CC3)nc12` (stereo not shown) [Compound I-5, Pyrrolidin-3-yl4-[3-(2-methoxy-3-pyridyl)pyrazolo[1,5-a]pyrimidin-5-yl]piperazine-1-carboxylate], for which the “AAK1:GAK pSENs Selectivity” value is “B (B: 0.016-0.075)”.

For the molecule `CN(CCNc1ccn2ncc(-c3cccnc3OC3CC3)c2n1)C(=O)O[C@]1(C)CCNC1` [Compound I-61, (R)-3-methylpyrrolidin-3-yl (2-((3-(2-cyclopropoxypyridin-3-yl)pyrazolo[1,5-a]pyrimidin-5-yl)amino)ethyl)(methyl)carbamate], the “AAK1:GAK pSENs Selectivity” value is given as “B (B: 0.016-0.075)”.

For the molecule `COc1ncccc1-c1cnn2ccc(N3CCN(C(=O)OC4(C)COC4)CC3)nc12` [RC-1, (3-methyloxetan-3-yl)-4-[3-(2-methoxy-3-pyridyl)pyrazolo[1,5-a]pyrimidin-5-yl]piperazine-1-carboxylate, reference compound], the “AAK1:GAK pSENs Selectivity” value is 0.0083.

`C#CC1(OC(=O)N2CCN(c3ccn4ncc(-c5cccnc5OC5CC5)c4n3)CC2)CCNC1` (stereo not shown) [Compound I-16-7, 3-ethynylpyrrolidin-3-yl-4-(3-(2-cyclopropoxypyridin-3-yl)pyrazolo[1,5-a]pyrimidin-5-yl)piperazine-1-carboxylate]: the “AAK1:GAK pSENs Selectivity” value is given as “B (B: 0.016-0.075)”.

With `CC1(OC(=O)N2CCN(c3ccn4ncc(-c5ccc(C(N)=O)cc5)c4n3)CC2)COC1` [Compound I-3, (3-methyloxetan-3-yl)-4-[3-(4-carbamoylphenyl)pyrazolo[1,5-a]pyrimidin-5-yl]piperazine-1-carboxylate], the “AAK1:GAK pSENs Selectivity” value was “B (B: 0.016-0.075)”.

For the molecule `[2H]C([2H])([2H])N1C[C@@H](OC(=O)N2CCN(c3nc4c(-c5cc(OC)cnc5OC5CC5)cnn4cc3F)CC2)CC1=O` [Compound I-117, [(3S)-5-oxo-1-(trideuteriomethyl)pyrrolidin-3-yl]4-[3-[2-(cyclopropoxy)-5-methoxy-3-pyridyl]-6-fluoro-pyrazolo[1,5-a]pyrimidin-5-yl]piperazine-1-carboxylate], the “AAK1:GAK pSENs Selectivity” value was “A (A: ≤0.015)”.

Turning to `CC1(OC(=O)N2CCN(c3ccn4ncc(-c5cccc(C(N)=O)c5)c4n3)CC2)COC1` [Compound I-4, (3-methyloxetan-3-yl)-4-[3-(3-carbamoylphenyl)pyrazolo[1,5-a]pyrimidin-5-yl]piperazine-1-carboxylate], the “AAK1:GAK pSENs Selectivity” value was “C (C: 0.076-0.15)”.

As to `CN(CCN1C[C@@H](OC(=O)N2CCN(c3ccn4ncc(-c5cccnc5OC5CC5)c4n3)CC2)CC1=O)C(=O)OC(C)(C)C` [Compound I-35, (S)-1-(2-((tert-butoxycarbonyl)(methyl)amino)ethyl)-5-oxopyrrolidin-3-yl-4-(3-(2-cyclopropoxypyridin-3-yl)pyrazolo[1,5-a]pyrimidin-5-yl)piperazine-1-carboxylate], the “AAK1:GAK pSENs Selectivity” value is reported as “B (B: 0.016-0.075)”.

As to `CN1C[C@H](OC(=O)N2CCN(c3ccn4ncc(-c5cccnc5OC5CC5)c4n3)CC2)CC1=O` [Compound I-94], the “AAK1:GAK pSENs Selectivity” value is given as “A (A: ≤0.015)”.

In the case of `CC(C)Oc1ncccc1-c1cnn2ccc(N3CCN(C(=O)O[C@]4(C)CCNC4)CC3)nc12` [Compound I-22, [(3R)-3-methylpyrrolidin-3-yl]4-[3-(2-isopropoxy-3-pyridyl)pyrazolo[1,5-a]pyrimidin-5-yl]piperazine-1-carboxylate], the “AAK1:GAK pSENs Selectivity” value is reported as “B (B: 0.016-0.075)”.

Regarding `C#C[C@]1(OC(=O)N2CCN(c3ccn4ncc(-c5cccnc5OC5CC5)c4n3)CC2)CCNC1` [Compound I-15, [(3R)-3-Ethynylpyrrolidin-3-yl]-4-[3-[2-(cyclopropoxy)-3-pyridyl]pyrazolo[1,5-a]pyrimidin-5-yl]piperazine-1-carboxylate], the “AAK1:GAK pSENs Selectivity” value is “B (B: 0.016-0.075)”.

As to `CN(CCNc1ccn2ncc(-c3cccnc3OC3CC3)c2n1)C(=O)OC(C)(C)C` [Compound I-12, tert-butyl N-[2-[[3-[2-(Cyclopropoxy)-3-pyridyl]pyrazolo[1,5-a]pyrimidin-5-yl]amino]ethyl]-N-methyl-carbamate], the “AAK1:GAK pSENs Selectivity” value is “A (A: ≤0.015)”.

For the molecule `O=C1C[C@H](OC(=O)N2CCN(c3ccn4ncc(-c5cccnc5OC5CC5)c4n3)CC2)CN1CCOCc1ccccc1` [Compound I-37, [(3S)-1-(2-benzyloxyethyl)-5-oxo-pyrrolidin-3-yl]-4-[3-[2-(cyclopropoxy)-3-pyridyl]pyrazolo[1,5-a]pyrimidin-5-yl]piperazine-1-carboxylate], the “AAK1:GAK pSENs Selectivity” value is recorded as “A (A: ≤0.015)”.

Regarding `Clc1cnn2ccc(N3CCNCC3)nc12` [Compound I-104, 3-chloro-5-piperazin-1-yl-pyrazolo[1,5-a]pyrimidine], the “AAK1:GAK pSENs Selectivity” value is recorded as “E (E: >1.00)”.

Turning to `COc1ncccc1-c1cnn2ccc(N3CCN(C(=O)OC4(C)CCNC4)CC3)nc12` (stereo not shown) [Compound I-8, (3-Methylpyrrolidin-3-yl)-4-[3-(2-methoxy-3-pyridyl)pyrazolo[1,5-a]pyrimidin-5-yl]piperazine-1-carboxylate], the “AAK1:GAK pSENs Selectivity” value is given as “B (B: 0.016-0.075)”.

On to `CC(C)(C)OC(=O)N1CCC(N2C[C@H](OC(=O)N3CCN(c4ccn5ncc(-c6cccnc6OC6CC6)c5n4)CC3)CC2=O)CC1` [Compound I-31, (R)-1-(1-(tert-Butoxycarbonyl)piperidin-4-yl)-5-oxopyrrolidin-3-yl 4-(3-(2-cyclopropoxypyridin-3-yl)pyrazolo[1,5-a]pyrimidin-5-yl)piperazine-1-carboxylate], for which the “AAK1:GAK pSENs Selectivity” value is reported as “D (D: 0.16-1.00)”.

Consider `COc1ncccc1-c1cnn2ccc(NCCN(C)C(=O)O[C@H]3CO[C@H]4OCC[C@H]43)nc12` [Compound I-70, (3R,3aS,6aR)-hexahydrofuro[2,3-b]furan-3-yl (2-((3-(2-methoxypyridin-3-yl)pyrazolo[1,5-a]pyrimidin-5-yl)amino)ethyl)(methyl)carbamate], for which the “AAK1:GAK pSENs Selectivity” value was “B (B: 0.016-0.075)”.

`CN1C[C@@H](OC(=O)N2CCN(c3ccn4ncc(-c5cccnc5O)c4n3)CC2)CC1=O` [Compound I-98, [(3S)-1-methyl-5-oxo-pyrrolidin-3-yl]-4-[3-(2-hydroxy-3-pyridyl)pyrazolo[1,5-a]pyrimidin-5-yl]piperazine-1-carboxylate]: the “AAK1:GAK pSENs Selectivity” value was “C (C: 0.076-0.15)”.

`CC(C)(C)OC(=O)N1CCN(c2ccn3ncc(Cl)c3n2)CC1` [Compound I-100, tert-butyl 4-(3-chloropyrazolo[1,5-a]pyrimidin-5-yl)piperazine-1-carboxylate]: the “AAK1:GAK pSENs Selectivity” value is reported as “D (D: 0.16-1.00)”.

Consider `CN1C[C@@H](OC(=O)N2CCN(c3ccn4ncc(Cl)c4n3)CC2)CC1=O` [Compound I-96, [(3S)-1-methyl-5-oxo-pyrrolidin-3-yl]-4-(3-chloropyrazolo[1,5-a]pyrimidin-5-yl)piperazine-1-carboxylate], for which the “AAK1:GAK pSENs Selectivity” value is “E (E: >1.00)”.

Take `COc1cnc(OC2CC2)c(-c2cnn3ccc(N4CCN(C(=O)O[C@H]5CC(=O)N(C)C5)CC4)nc23)c1` [Compound I-87]: the “AAK1:GAK pSENs Selectivity” value is “A (A: ≤0.015)”.

Turning to `CC1(OC(=O)N2CCN(c3ccn4ncc(-c5cccnc5OC5CC5)c4n3)CC2)CCNC1` (stereo not shown) [Compound I-13-5, (3-Methylpyrrolidin-3-yl) 4-[3-[2-(cyclopropoxy)-3-pyridyl]pyrazolo [1,5-a]pyrimidin-5-yl]piperazine-1-carboxylate], the “AAK1:GAK pSENs Selectivity” value was “B (B: 0.016-0.075)”.
